Assay results reported in US20190119282A1, “IMIDAZOPYRIDAZINES USEFUL AS INHIBITORS OF THE PAR-2 SIGNALING PATHWAY” (Vertex Pharmaceuticals Incorporated, priority 2013, published 2019).
Marks after values point to notes of the source that are not given here.

Columns and labels:
[1] = target: T1, PAR2 (HT-29 cells, SLIGKV activation) (Homo sapiens, UniProt P55085); assay: Ca FLIPR TETRA assay, ANTAGONIST mode, stimulation with 8 μM SLIGKV; type: cell-based; settings: HT-29 cells, antagonist mode, stimulation with 8 μM SLIGKV
T1 construct: host or cells: HT-29 cells
T1 sequence (P55085 26-397): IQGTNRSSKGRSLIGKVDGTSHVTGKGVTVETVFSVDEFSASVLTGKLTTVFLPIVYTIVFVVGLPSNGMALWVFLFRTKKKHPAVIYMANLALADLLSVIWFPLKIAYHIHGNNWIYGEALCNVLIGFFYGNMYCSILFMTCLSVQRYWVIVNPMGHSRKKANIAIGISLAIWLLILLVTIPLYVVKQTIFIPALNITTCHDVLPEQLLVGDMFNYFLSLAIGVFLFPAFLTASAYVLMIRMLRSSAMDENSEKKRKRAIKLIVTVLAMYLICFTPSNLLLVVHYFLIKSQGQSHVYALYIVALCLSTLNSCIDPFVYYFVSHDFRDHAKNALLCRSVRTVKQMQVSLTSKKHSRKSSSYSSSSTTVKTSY
Procedure, shortened: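 Antagonist-mode assay: dye-loaded HT-29 cells, compound 30 min at r.t., then stimulated with final 8 μM SLIGKV, 3.1 U/mL trypsin, 1 U/mL thrombin or 0.6 μM UTP; calcium fluorescence read.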

[2] = test system: carrageenan-induced paw edema; assay: Rat carrageenan-induced paw edema model; type: in vivo, Sprague Dawley rats; settings: for % inhibition of carrageenan induced paw edema: given before carrageenan challenge; for % inhibition of an established carrageenan induced rat paw edema: given 2 hours post carrageenan challenge
Procedure, shortened: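 Rats received intraplantar 1% carrageenan (100 ul) under isoflurane. Test compound in 0.5% MC/0.1% SDS was given systemically at 5 mL/kg either 1-3 h before or 2 h after the challenge. Paw swelling was measured by plethysmometer at 2-6 h and expressed as mean % effect.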

## Cc1nc(C(=O)N2CCN(C(=O)c3cn4nc(-c5ccc(F)cc5)cc(C(C)(C)C)c4n3)C(C)(C)C2)n[nH]1 [Compound I-343, (8-(tert-butyl)-6-(4-fluorophenyl)imidazo[1,2-b]pyridazin-2-yl)(2,2-dimethyl-4-(5-methyl-1H-1,2,4-triazole-3-carbonyl)piperazin-1-yl)methanone]
[1]
  IC50: 0.5 nM
[2]; dose 0.3 mg/kg
  % inhibition of carrageenan induced paw edema: 19* %
[2]; dose 3 mg/kg
  % inhibition of an established carrageenan induced rat paw edema: 32** %
  % inhibition of carrageenan induced paw edema: 28* %
[2]; dose 10 mg/kg
  % inhibition of an established carrageenan induced rat paw edema: 49** %
  % inhibition of carrageenan induced paw edema: 34* %
[2]; dose 30 mg/kg
  % inhibition of an established carrageenan induced rat paw edema: 58** %
  % inhibition of carrageenan induced paw edema: 50*** %
[2]; dose 60 mg/kg
  % inhibition of an established carrageenan induced rat paw edema: 70*** %
